Experimental data taken from patent US20020049139A1, “Herbicidal compositions containing DMSO” (priority 1997, published 2002).

Legend:
sickle pod [1] = experiment: Greenhouse control of sickle pod by glyphosate with/without DMSO; type: in vivo
Procedure: Glyphosate (N-(phosphonomethyl) glycine), the active agent (41%) in Composition B and other similar non-selective herbicidal products for control of many annual and perennial grasses, broadleaf weeds, woody shrubs and trees was evaluated in greenhouse studies. The LD50 range for glyphosate in the commercial concentrate Composition B on sickle pod grown in the greenhouse was established at 0.06%, and […].
Data showing effectiveness for control of sickle pod at concentration 0.06% and 0.3% in carrier with 3% DMSO are shown below. The testing procedure used 12 sickle pod 3 inches high selected for uniformity in each treatment. The rating of injury to each plant was based on visual rating of herbicidal activity with +=10%, ++=25%, +++=50%, ++++−75% and dead plants=[…].

sickle pod [2] = experiment: as above; type: in vivo; remark: listed apart in the source
hosta = experiment: Phytotoxicity of DMSO sprays on hosta; type: in vivo
Procedure: (§1) Phytotoxicity of DMSO sprays was evaluated on hosta, ferns and azaleas. In each instance, groups of 6 plants were sprayed with 1%, 2%, 5% or 10% aqueous DMSO.

ferns = experiment: Phytotoxicity of DMSO sprays on ferns; type: in vivo
Procedure: as §1

azaleas = experiment: Phytotoxicity of DMSO sprays on azaleas; type: in vivo, azalea
Procedure: as §1

cacao seedling = details: aqueous solutions containing 40% or greater amounts of DMSO; cited from earlier work

SMILES	% control of sickle pod (sickle pod [1]; 0.03% glyphosate only, 12 days) [%]	% control of sickle pod (sickle pod [1]; 0.06% glyphosate only, 12 days) [%]	% control of sickle pod (sickle pod [1]; 0.06% glyphosate only, 20 days) [%]	% control of sickle pod (sickle pod [1]; 0.06% glyphosate only, 30 days) [%]	% control of sickle pod (sickle pod [1]; 0.06% glyphosate with 3% DMSO, 12 days) [%]	% control of sickle pod (sickle pod [1]; 0.06% glyphosate, 3% DMSO, 20 days) [%]	control of sickle pod over a 30 day interval with 3% DMSO versus glyphosate only (sickle pod [1]; 0.06% glyphosate, 3% DMSO, 30 day interval)	% control of sickle pod (sickle pod [1]; 0.06% glyphosate, 3% DMSO, 30 days) [%]	% control of sickle pod (sickle pod [2]; 0.03% glyphosate with 3% DMSO, 12 days) [%]	sickle pod control with 3% DMSO versus without DMSO (sickle pod [2]; glyphosate at 0.06% and 0.03%, 3% DMSO present)	Effects (hosta; hosta sprayed with 2% aqueous DMSO)	Effects (hosta; hosta sprayed with 5% aqueous DMSO)	Effects (hosta; hosta sprayed with 10% aqueous DMSO)	Effects (ferns; ferns sprayed with 2% aqueous DMSO)	Effects (ferns; ferns sprayed with 5% aqueous DMSO)	Effects (ferns; ferns sprayed with 10% aqueous DMSO)	Effects (azaleas; azalea sprayed with 2% aqueous DMSO)	Effects (azaleas; azalea sprayed with 5% aqueous DMSO)	Effects (azaleas; azalea sprayed with 10% aqueous DMSO)	effect on cacao seedling (cacao seedling)
O=C(O)CNCP(=O)(O)O [glyphosate, N-(phosphonomethyl) glycine]	54	51	43	85	90	85	improved early and sustained control	96	85	significant improvement										
C[S+](C)[O-] [DMSO, Dimethylsulfoxide]											non-toxic	non-toxic	Margina burn	non-toxic	burn on fron tips	burn on fron tips	non-toxic	non-toxic	non-toxic	marginal necroses
